From patent US20210309658A1, “ARYL COMPOUNDS FOR THE TREATMENT AND PROPHYLAXIS OF BACTERIAL INFECTION” (Hoffmann-La Roche Inc., priority 2018, published 2021) come the findings set out here.

Type in all cases: cell-based
Data set [1] can be described thus: Cytotoxicity assay (HepG2, CellTiter-Blue). Conditions: human; HepG2 cells, 3 days treatment; * = detection limit. As to the method:
The cytotoxicity of compounds of present invention was assessed by HepG2 assay. HepG2 cells (ATCC HB-8065™) were seeded into 96-well plates (1.2×10^4 cells per well) and treated with compounds for 3 days, cell viability was measured at day 3 post compound treatment using the CellTiter-Blue® Cell Viability Assay (Promega, Cat. No. G8082). 20 μL of Cell titer blue buffer were added to each well of the cells, incubated for 3 hours at 37° C., and the fluorescence value was measured by a plate reader (Molecular Device SpectraMax M2). The CC50 value of each compound is plotted with GraphPad Prism using four parameter logistic equation.

Another data set has as its system E. coli (ATCC 25922). The experiment in a line: Minimal Inhibitory Concentration (MIC) assay. Particulars: Escherichia coli, ATCC25922; CAMHB, 20 hours at 35° C.; read-out: MIC (μg/mL) E. coli ATCC 25922. As to the method: The in vitro potency of compounds to inhibit E. coli (ATCC 25922) growth was assessed by MIC (Minimal Inhibitory Concentration) assay. Samples were prepared from 10 mM DMSO stock solutions. After serial 2-fold dilution in DMSO in a master plate (Greiner, Cat No: 651201), 180 μL sterile distilled water was added to 20 μL each aliquot of the samples. Then 10 μL diluted compounds were transferred into a new assay plate (Costar, 3599).
The growth medium […] Mueller Hinton Broth (CAMHB) was prepared by adding the 20 mg per liter CaCl2 and 20 mg per liter MgCl2 into the MHB medium (Jianglai Company, sterilized).
Vials of each of the test microorganisms were maintained frozen in the vapor phase of a liquid nitrogen freezer. Took out the bacteria E. coli ATCC 25922 (KWIKSTIK, 0335K) from liquid nitrogen freezer, thawed it in room temperature, and diluted the bacterial in the CAMHB medium to achieve a final inoculum of 5×10^5 CFU/mL, 90 μL CAMHB with bacteria was dispensed to the assay plate and pipetted 5 times.
Then the assay plates were incubated for 20 hours at 35° C. in ambient air. Following incubation, the MIC (μg/mL), the lowest concentration of drug that inhibits visible growth of the microorganism was read and recorded throw the microscope.

For the next data set, the system named is E. coli (BW25113). The experiment in a line: 50% growth inhibitory concentration (IC50) determination assay, E. coli. Conditions: Escherichia coli, BW25113; growth inhibition, Iso-Sensitest broth, OD 600 nm over 16 h; read-out: IC50 (μM) E. coli K12 BW25113. As for the experimental part:
(§1) The in vitro antimicrobial activity of the compounds against E. coli (BW25113, obtained from Coli Genetic Stock Center, #7636) and K. pneumoniae (ATCC10031) was determined according to the following procedure:
(§2) The assay used a 10-points Iso-Sensitest broth medium to measure quantitatively the in vitro activity of the compounds against E. coli BW25113 and K. pneumoniae ATCC 10031.
(§3) Stock compounds in DMSO were serially two-fold diluted (range from 50 to 0.097 μM final concentration) in 384 wells microtiter plates and inoculated with 49 μL the bacterial suspension in Iso-Sensitest broth medium to have a final cell concentration of ˜5×10^5 CFU/mL in a final volume/well of 50 μL/well. Microtiter plates were incubated at 35±2° C.
(§4) Bacterial cell growth was determined with the measurement of optical density at λ=600 nm each 20 minutes over a time course of 16 h.
(§5) Growth inhibition was calculated during the logarithmic growth of the bacterial cells with determination of the concentration inhibiting 50% (IC50) of the growth.

Data set [2] concerns K. pneumoniae (ATCC10031). Briefly: 50% growth inhibitory concentration (IC50) determination assay, K. pneumoniae. Conditions: Klebsiella pneumoniae, ATCC10031; growth inhibition, Iso-Sensitest broth, OD 600 nm over 16 h; * = detection limit; read-out: IC50 (μM) K. pneumoniae ATCC10031. As for the experimental part: as §1, §2, §3, §4, §5

Structures are written as SMILES. Converted amounts (≈) assume the structure as drawn.

In the case of `CNc1cc(F)cc2c1[nH]c1ncc(-c3cnc(OC)nc3)c(-n3nc(C#N)c4c3CNC4)c12` [Example 1.38, 1-[6-Fluoro-3-(2-methoxypyrimidin-5-yl)-8-(methylamino)-9H-pyrido[2,3-b]indol-4-yl]-5,6-dihydro-4H-pyrrolo[3,4-c]pyrazole-3-carbonitrile], it took 11000 nM to reach half-maximal cytotoxicity in data set [1] (CC50 at 3 days).

Consider `CCNc1cc(F)cc2c1[nH]c1ncc(-c3cnc(OC)nc3)c(-n3nc(C(F)(F)F)c4c3CNC4)c12` [Example 1.35, N-Ethyl-6-fluoro-3-(2-methoxypyrimidin-5-yl)-4-[3-(trifluoromethyl)-5,6-dihydro-4H-pyrrolo[3,4-c]pyrazol-1-yl]-9H-pyrido[2,3-b]indol-8-amine], for which the CC50 at 3 days in data set [1] was 58000 nM. Moreover, the MIC in the data set on E. coli (ATCC 25922) is 0.601 µg/mL (≈ 1.17 µM).

`CCNc1cc(F)cc2c1[nH]c1ncc(-c3cncc(C(=O)NOC)c3)c(-n3ccc(C(F)(F)F)n3)c12` [Example 3.03, 5-[8-(Ethylamino)-6-fluoro-4-[3-(trifluoromethyl)pyrazol-1-yl]-9H-pyrido[2,3-b]indol-3-yl]-N-methoxy-pyridine-3-carboxamide] gave a CC50 at 3 days in data set [1] of 13000 nM. The figures for the IC50 (with E. coli (BW25113); in data set [2]) were 0.775 µM and no more than 0.098 µM, respectively.

For the compound `CCNc1cc(F)cc2c1[nH]c1ncc(-c3cnc(OC)nc3)c(-n3cc(CN)c(C(F)(F)F)n3)c12` [Example 1.27, 4-[4-(Aminomethyl)-3-(trifluoromethyl)pyrazol-1-yl]-N-ethyl-6-fluoro-3-(2-methoxypyrimidin-5-yl)-9H-pyrido[2,3-b]indol-8-amine], the IC50 in the data set on E. coli (BW25113) is 0.462 µM; in data set [2] it was no more than 0.098 µM. For the same compound, the MIC in the data set on E. coli (ATCC 25922) worked out at 0.417 µg/mL (≈ 0.833 µM).

With `CCNc1cc(F)cc2c1[nH]c1ncc(-c3cnc(N)nc3)c(-n3ccc(C(F)(F)F)n3)c12` [Example 1.06, 3-(2-Aminopyrimidin-5-yl)-N-ethyl-6-fluoro-4-[3-(trifluoromethyl)pyrazol-1-yl]-9H-pyrido[2,3-b]indol-8-amine], the figures for the IC50 (in the data set with E. coli (BW25113); in data set [2]) were 0.495 µM and no more than 0.098 µM, respectively. The MIC with E. coli (ATCC 25922) worked out at 0.267 µg/mL (≈ 0.585 µM).

`CCNc1cc(F)cc2c1[nH]c1ncc(-c3cnc(OC)nc3)c(-n3ncc4c3CNC4)c12` [Example 1.21, 4-(5,6-Dihydro-4H-pyrrolo[3,4-c]pyrazol-1-yl)-N-ethyl-6-fluoro-3-(2-methoxypyrimidin-5-yl)-9H-pyrido[2,3-b]indol-8-amine] displayed a half-maximal cytotoxic concentration (CC50) at 3 days in data set [1] of 30500 nM.

For the compound `CCNc1cc(F)c(F)c2c1[nH]c1ncc(-c3cncc(C#N)c3)c(-n3ccc(C(F)(F)F)n3)c12` [Example 1.28, 5-[8-(Ethylamino)-5,6-difluoro-4-[3-(trifluoromethyl)pyrazol-1-yl]-9H-pyrido[2,3-b]indol-3-yl]pyridine-3-carbonitrile], the IC50 in the data set on E. coli (BW25113) is 0.8 µM; in data set [2], 0.199 µM. Moreover, the MIC in the data set on E. coli (ATCC 25922) was 0.7 µg/mL (≈ 1.45 µM).

For the compound `CCNc1cc(F)cc2c1[nH]c1ncc(-c3cncc(C(N)=O)c3)c(-n3ccc(C(F)(F)F)n3)c12` [Example 1.15, 5-[8-(Ethylamino)-6-fluoro-4-[3-(trifluoromethyl)pyrazol-1-yl]-9H-pyrido[2,3-b]indol-3-yl]pyridine-3-carboxamide], the IC50 in the data set with E. coli (BW25113) is 0.289 µM; in data set [2], no more than 0.098 µM. Also, the MIC in the data set with E. coli (ATCC 25922) was found to be 0.142 µg/mL (≈ 0.294 µM).

As for `CCNc1cc(F)cc2c1[nH]c1ncc(-c3cnc(OCC(C)(C)C(=O)O)nc3)c(-n3ccc(C(F)(F)F)n3)c12` [Example 2.03, 3-[5-[8-(Ethylamino)-6-fluoro-4-[3-(trifluoromethyl)pyrazol-1-yl]-9H-pyrido[2,3-b]indol-3-yl]pyrimidin-2-yl]oxy-2,2-dimethyl-propanoic acid], the CC50 at 3 days in data set [1] is 20700 nM. Also, the MIC in the data set on E. coli (ATCC 25922) is 0.653 µg/mL (≈ 1.17 µM).

On to `CCNc1cc(F)cc2c1[nH]c1ncc(-c3cncc(C#N)c3)c(-n3ccc(C#N)n3)c12` [Example 1.05, 5-[4-(3-Cyanopyrazol-1-yl)-8-(ethylamino)-6-fluoro-9H-pyrido[2,3-b]indol-3-yl]pyridine-3-carbonitrile], for which the IC50 in the data set on E. coli (BW25113) was 0.701 µM; in data set [2], no more than 0.098 µM. For the same compound, the MIC with E. coli (ATCC 25922) was found to be 0.314 µg/mL (≈ 0.743 µM).

On to `CCNc1cc(F)cc2c1[nH]c1ncc(-c3cncc(C(=O)NC)c3)c(-n3ccc(C(F)(F)F)n3)c12` [Example 1.43, 5-[8-(Ethylamino)-6-fluoro-4-[3-(trifluoromethyl)pyrazol-1-yl]-9H-pyrido[2,3-b]indol-3-yl]-N-methyl-pyridine-3-carboxamide], for which, in data set [1], the CC50 at 3 days stood at 11100 nM. The IC50 in the data set with E. coli (BW25113) is 0.796 µM; in data set [2] it was no more than 0.098 µM.

As for `CCNc1cc(F)cc2c1[nH]c1ncc(-c3cncc(C(=O)NCCOC)c3)c(-n3ccc(C(F)(F)F)n3)c12` [Example 3.06, 5-[8-(ethylamino)-6-fluoro-4-[3-(trifluoromethyl)pyrazol-1-yl]-9H-pyrido[2,3-b]indol-3-yl]-N-(2-methoxyethyl)pyridine-3-carboxamide], the IC50 in the data set with E. coli (BW25113) was 1.45 µM; in data set [2], no more than 0.098 µM. Also, in the data set with E. coli (ATCC 25922), the MIC was found to be 0.734 µg/mL (≈ 1.36 µM).

Regarding `CCNc1cc(F)cc2c1[nH]c1ncc(-c3cncc(N)c3)c(-n3ccc(C(F)(F)F)n3)c12` [Example 1.37, 3-(5-Amino-3-pyridyl)-N-ethyl-6-fluoro-4-[3-(trifluoromethyl)pyrazol-1-yl]-9H-pyrido[2,3-b]indol-8-amine], the midpoint of cytotoxicity in data set [1], the CC50 at 3 days, lay at 11100 nM. The figures for the IC50 (in the data set with E. coli (BW25113); in data set [2]) were 1.32 µM and no more than 0.098 µM, respectively.

Consider `CCNc1cc(F)cc2c1[nH]c1ncc(-c3cnc([C@H](C)O)nc3)c(-n3ccc(C(F)(F)F)n3)c12` [Example 1.57, (1S)-1-[5-[8-(ethylamino)-6-fluoro-4-[3-(trifluoromethyl)pyrazol-1-yl]-9H-pyrido[2,3-b]indol-3-yl]pyrimidin-2-yl]ethanol], for which the results for the IC50 (in the data set with E. coli (BW25113); in data set [2]) were 0.631 µM and no more than 0.098 µM, respectively. For the same compound, the MIC with E. coli (ATCC 25922) is 0.284 µg/mL (≈ 0.585 µM).

On to `CCNc1cc(F)cc2c1[nH]c1ncc(-c3cncc(C#N)c3)c(-n3cc(C(F)(F)F)cn3)c12` [Example 1.03, 5-[8-(Ethylamino)-6-fluoro-4-[4-(trifluoromethyl)pyrazol-1-yl]-9H-pyrido[2,3-b]indol-3-yl]pyridine-3-carbonitrile], for which the IC50 in the data set on E. coli (BW25113) was found to be 1.61 µM; in data set [2] it was 0.206 µM. For the same compound, in the data set with E. coli (ATCC 25922), the MIC was found to be 0.679 µg/mL (≈ 1.46 µM).

For the compound `CCNc1cc(F)cc2c1[nH]c1ncc(-c3cnc4cccnc4c3)c(-n3ccc(C(F)(F)F)n3)c12` [Example 1.11, N-Ethyl-6-fluoro-3-(1,5-naphthyridin-3-yl)-4-[3-(trifluoromethyl)pyrazol-1-yl]-9H-pyrido[2,3-b]indol-8-amine], the IC50 with E. coli (BW25113) turned out to be 0.803 µM; in data set [2] it was 0.208 µM. Moreover, the MIC in the data set on E. coli (ATCC 25922) stood at 0.288 µg/mL (≈ 0.586 µM).

In the case of `CCNc1cc(F)c(F)c2c1[nH]c1ncc(-c3cnc(OC)nc3)c(-n3ccc(C(F)(F)F)n3)c12` [Example 1.29, N-Ethyl-5,6-difluoro-3-(2-methoxypyrimidin-5-yl)-4-[3-(trifluoromethyl)pyrazol-1-yl]-9H-pyrido[2,3-b]indol-8-amine], the half-inhibitory concentration (IC50) came out at 1.05 µM in the data set with E. coli (BW25113) and 0.175 µM in data set [2]. Further, the MIC in the data set on E. coli (ATCC 25922) amounted to 0.354 µg/mL (≈ 0.723 µM).

With `CNc1cc(F)cc2c1[nH]c1ncc(-c3cncc(C#N)c3)c(-n3cc(CN)c(C(F)(F)F)n3)c12` [Example 1.14, 5-[4-[4-(Aminomethyl)-3-(trifluoromethyl)pyrazol-1-yl]-6-fluoro-8-(methylamino)-9H-pyrido[2,3-b]indol-3-yl]pyridine-3-carbonitrile], in data set [1], the midpoint of cytotoxicity, the CC50 at 3 days, lay at 13300 nM.

Regarding `CCNc1cc(F)cc2c1[nH]c1ncc(-c3cnc(C)nc3)c(-n3ccc(C(F)(F)F)n3)c12` [Example 1.50], the IC50 is 0.422 µM in the data set with E. coli (BW25113) and 0.098 µM in data set [2]. Also, the MIC in the data set with E. coli (ATCC 25922) worked out at 0.534 µg/mL (≈ 1.17 µM).
